pIC50: −log10 of the molar value. “Also recorded” adds a separate entry of the source.
Key:
[1] = DPPH scavenging ability test (active organic radical species scavenging ability); design: key to DPPH test: +: effective; −: >10 mM; conditions: for IC50: percent decrease in OD at 550 nm, 400 μM DPPH in ethanol
Procedure: The ability of the derivatives obtained in preparation processes A and B to scavenge 2,2-diphenyl-1-picrylhydrazyl (DPPH) (active organic radical species scavenging ability) was measured by the following method.
Trolox® and the test compounds were individually dissolved in ethanol and the solutions were adjusted to a final concentration of 10 mM. Next, each solution was diluted severalfold to obtain solutions at concentrations ranging from 10 mM to 1 μM.
100 μl of each of the obtained ethanol solutions was added to a multi-well ELISA plate along with 100 μl of 400 μM DPPH solution in ethanol. The absorbance (optical density, OD) at 550 nm was measured for these solutions.
DPPH scavenging ability was determined for each test compound based on the results of these measurements. For comparison, the test compound solutions in ethanol were substituted with ethanol alone.
The scavenging ability of each test compound is presented as a percent decrease in OD with respect to the absorbance of the comparative sample.

[2] = OH radical scavenging ability test (ABTS scavenging assay, Fenton reaction); design: key to OH test: +: effective; −: >10 mM; conditions: for IC50 / pIC50: ABTS competition, OD at 405 nm, 45 minutes at room temperature; for IC50: read-out: IC50 (μM), OH radical scavenging ability; for pIC50: read-out: IC50, OH radical scavenging ability
Procedure: Hydroxyl radical scavenging ability was measured for derivatives obtained in preparation processes A, B, and E by the following method using an ABTS (2,2′-azinobis(3-ethylbenzthiazolin-6-sulfonic acid)) scavenging assay.
In this test, hydroxyl radicals were generated in situ by the Fenton reaction. Next, competitive reactions between ABTS and the test compounds took place, and the hydroxyl radicals were scavenged by ABTS to form ABTS^+ radical cations, or were scavenged by the test compounds.
The test compounds and Trolox® were individually dissolved in ethanol and the solutions were adjusted to a final concentration of 10 mM. Each solution was then diluted severalfold to obtain solutions at concentrations ranging from 10 mM to 1 μM.
Next, 180 μl of 1:1 ethanol-water solution was added to a multi-well ELISA plate, and then 30 μl of 1 mM aqueous ABTS solution, 30 μl of 0.5 mM aqueous Fe2SO4 solution, 30 μl of a solution of each test compound in ethanol, and 30 μl of 100 mM aqueous hydrogen peroxide solution were added. The obtained solutions were left to stand for 45 minutes at room temperature, and the absorbance (OD) at 405 nm was measured. OH radical scavenging ability was determined for each test compound based on the results of these measurements. For comparison, the test compound solutions in ethanol were substituted with ethanol alone.

E15 neurons [3] = experiment: Axonal growth in primary culture of CNS neurons (morphometric analysis); type: cell-based, mouse
Procedure: Fetal mouse (15 days old) cerebral hemispheres were dissected in cold Gey's balanced salt solution supplemented with glucose to isolate the neocortex. Cells were dispersed by trypsin and mechanical dissociation. Next, the cells were plated at a concentration of 200,000 cells/well onto cover slips coated with 1 μg/ml of poly-L-lysine, and the cells were cultured in a serum-containing medium (Dulbecco's modified Eagle medium, 2 mM glutamine, 1 g/l glucose, 10% fetal calf serum, and penicillin/streptomycin) in 5% CO2 at 37° C. for 24 hours.
On day 2, the medium was substituted with a chemically defined medium (Dulbecco's modified Eagle medium, 2 mM glutamine, 1 g/l glucose, 16 μg/ml putrescine, 52 ng/ml selenium, 10 μg/ml holotransferrin, 5 μg/ml insulin, and 3 ng/ml progesterone), and test compounds were added at different concentrations. The cells were cultured in 5% CO2 at 37° C. for 24 hours.
On day 3, the cells were fixed with 4% formaldehyde in phosphate buffered saline (PBS) for ten minutes. After two washes with PBS, permeation of cells was performed with 100% methanol for five minutes. […]
Photographs were randomly taken (×20 magnification) using an Axiovert 200 microscope (Zeiss) equipped with a digital camera. The axonal length of each neuron was determined using a computer-assisted image analyzer (UTHSCSA Image Tool 3.0).

E15 neurons [4] = conditions: J. Neurochem., 90 (6), 1423-31, 2004; cited from earlier work

SMILES: COc1ccc(OC)c(CCCCCCCCCCCCCCCCO)c1 [Synthesis Example A-(8), 16-(2,5-dimethoxyphenyl)hexadecan-1-ol]
- DPPH test ([1]; Table 3, formula (1) compounds): − (−: >10 mM)
- OH test ([2]; Table 3, formula (1) compounds): − (−: >10 mM)

SMILES: OCCCCCCCCCCCCCCCCCCc1cc(O)ccc1O [Synthesis Example E-(32), 2-(18-hydroxyoctadecyl)benzene-1,4-diol]
- IC50 [1]: 0.23 mM
- IC50 [2]: 6 µM

SMILES: COc1cc(OC)c(OC)cc1CCCCCCCCCCCCCCO [Synthesis Example B-(13), 14-(2,4,5-trimethoxyphenyl)tetradecan-1-ol]
- DPPH test ([1]; Table 3, formula (1) compounds): − (−: >10 mM)

SMILES: COc1ccc(OC)c(NCCCCCCCCCCCCO)c1 [Synthesis Example C-(23), 12-(2,5-Dimethoxyphenylamino)dodecan-1-ol]
- DPPH test ([1]; Table 4, formula (2) compounds): − (−: >10 mM)
- OH test ([2]; Table 4, formula (2) compounds): − (−: >10 mM)

SMILES: COc1ccc(OC)c(CCCCCCCCCCCCCCCO)c1 [Synthesis Example A-(7), 15-(2,5-dimethoxyphenyl)pentadecan-1-ol]
- DPPH test ([1]; Table 3, formula (1) compounds): − (−: >10 mM)
- OH test ([2]; Table 3, formula (1) compounds): − (−: >10 mM)
- axonal growth-promoting activity (in words) (E15 neurons [3]; 24 hours with compound, listed as QFA15): the most active compound; also recorded: greater axonal growth-promoting ability at a lower concentration; also recorded: effective axonal growth-promoting agent
- axonal growth-promoting effect, value of FIG. 4 micrographs (E15 neurons [3]; control 85 μM, the values are: axonal length): 155 µm

SMILES: COc1cc(OC)c(OC)cc1CCCCCCCCCCCCCCCCCCO [Synthesis Example B-(17), 18-(2,4,5-trimethoxyphenyl)octadecan-1-ol]
- DPPH test ([1]; Table 3, formula (1) compounds): − (−: >10 mM)
- IC50 [1]: > 10 mM
- IC50 [2]: 720 µM

SMILES: OCCCCCCCCCCCCCCCc1cc(O)ccc1O [Synthesis Example E-(34), 2-(15-hydroxypentadecyl)benzene-1,4-diol]
- IC50 [1]: 0.23 mM
- IC50 [2]: 6 µM

SMILES: CC1=C(CCCCCCCCCCCCCCCO)C(C)(C)CCC1=O [tCFA15, 3-(15-hydroxypentadecyl)-2,4,4-trimethyl-2-cyclohexen-1-one]
- axonal growth-promoting activity in a previous study (in words) (E15 neurons [4]): showed similar results

SMILES: COc1cc(OC)c(OC)cc1CCCCCCCCCCCCCCCO [Synthesis Example B-(15), 15-(2,4,5-trimethoxyphenyl)pentadecan-1-ol]
- DPPH test ([1]; Table 3, formula (1) compounds): − (−: >10 mM)

SMILES: COc1ccc(OC)c(OCCCCCCCCCCCCCCCCO)c1 [Synthesis Example D-(30), 16-(2,5-dimethoxyphenoxy)hexadecan-1-ol]
- DPPH test ([1]; Table 4, formula (2) compounds): − (−: >10 mM)
- OH test ([2]; Table 4, formula (2) compounds): − (−: >10 mM)

SMILES: OCCCCCCCCCCCCc1cc(O)ccc1O [Synthesis Example E-(31), 2-(12-hydroxydodecyl)benzene-1,4-diol]
- IC50 [1]: 0.23 mM
- IC50 [2]: 6 µM

SMILES: CCCCCCCCCCCCCCCCc1cc(O)ccc1O [Synthesis Example E-(33), 2-hexadecylbenzene-1,4-diol]
- DPPH test ([1]; Table 4, formula (2) compounds): +
- IC50 [1]: 1.53 mM
- OH test ([2]; Table 4, formula (2) compounds): +

SMILES: COc1cc(OC)c(OC)cc1CCCCCCCCCCCCCCCCO [Synthesis Example B-(16), 16-(2,4,5-trimethoxyphenyl)hexadecan-1-ol]
- DPPH test ([1]; Table 3, formula (1) compounds): − (−: >10 mM)

SMILES: COc1cc(OC)c(OC)cc1CCCCCCCCCCCCO [Synthesis Example B-(14), 12-(2,4,5-trimethoxyphenyl)dodecan-1-ol]
- DPPH test ([1]; Table 3, formula (1) compounds): − (−: >10 mM)
- IC50 [1]: > 10 mM
- IC50 [2]: 720 µM

SMILES: COc1ccc(OC)c(NCCCCCCCCCCCCCCO)c1 [Synthesis Example C-(22), 14-(2,5-Dimethoxyphenylamino)tetradecan-1-ol]
- DPPH test ([1]; Table 4, formula (2) compounds): − (−: >10 mM)
- OH test ([2]; Table 4, formula (2) compounds): − (−: >10 mM)

SMILES: COc1ccc(OC)c(CCCCCCCCCCCCCCO)c1 [Synthesis Example A-(6), 14-(2,5-dimethoxyphenyl)tetradecan-1-ol]
- DPPH test ([1]; Table 3, formula (1) compounds): − (−: >10 mM)
- OH test ([2]; Table 3, formula (1) compounds): − (−: >10 mM)

SMILES: COc1ccc(OC)c(CCCCCCCCCCCCO)c1 [Synthesis Example A-(5), 12-(2,5-dimethoxyphenyl)dodecan-1-ol]
- DPPH test ([1]; Table 3, formula (1) compounds): − (−: >10 mM)
- IC50 [1]: > 10 mM
- pIC50 [2]: < 2.00
- OH test ([2]; Table 3, formula (1) compounds): − (−: >10 mM)

SMILES: COc1ccc(OC)c(NCCCCCCCCCCO)c1 [Synthesis Example C-(24), 10-(2,5-Dimethoxyphenylamino)decan-1-ol]
- DPPH test ([1]; Table 4, formula (2) compounds): − (−: >10 mM)
- OH test ([2]; Table 4, formula (2) compounds): − (−: >10 mM)

SMILES: COc1ccc(OC)c(NCCCCCCCCCCCCCCCCO)c1 [Synthesis Example C-(21), 16-(2,5-dimethoxyphenylamino)hexadecan-1-ol]
- DPPH test ([1]; Table 4, formula (2) compounds): − (−: >10 mM)
- OH test ([2]; Table 4, formula (2) compounds): − (−: >10 mM)

SMILES: COc1ccc(OC)c(CCCCCCCCCCCCCCCCCCO)c1 [Synthesis Example A-(9), 18-(2,5-dimethoxyphenyl)octadecan-1-ol]
- DPPH test ([1]; Table 3, formula (1) compounds): − (−: >10 mM)
- IC50 [1]: > 10 mM
- pIC50 [2]: < 2.00
- OH test ([2]; Table 3, formula (1) compounds): − (−: >10 mM)

SMILES: Cc1c(C)c2c(c(C)c1O)CCC(C)(C(=O)O)O2 (stereo not shown) [Trolox ®, reference compound]
- IC50 [1]: 0.23 mM
- IC50 [2]: 600 µM

SMILES: COc1ccc(OC)c(OCCCCCCCCCCCCO)c1 [Synthesis Example D-(29), 12-(2,5-dimethoxyphenoxy)dodecan-1-ol]
- DPPH test ([1]; Table 4, formula (2) compounds): − (−: >10 mM)
- OH test ([2]; Table 4, formula (2) compounds): − (−: >10 mM)
